test system: not listed separately; assay: in vitro; conditions: dog, MDCK-MDR1, pH 7.4
Method: (§1) Permeability measurements were performed by Wuxi Apptec, using the following procedures.
(§2) Test compounds were diluted with the transport buffer (HBSS, pH 7.4) from a 10 mM stock solution to a concentration of 2 µM and applied to the apical (A) or basolateral (B) side of the cell monolayer. […] In addition, the efflux ratio of each compound was also determined. Test and reference compounds were quantified by LC-MS/MS analysis based on the peak area ratio of analyte/IS.
(§3) The apparent permeability coefficient Papp (cm/s) was calculated using the equation: [drawing 1] where dCr/dt is the cumulative concentration of compound in the receiver chamber as a function of time (µM/s); Vr is the solution volume in the receiver chamber (0.075 mL on the apical side, 0.25 mL on the basolateral side); A is the surface area for the transport, i.e. 0.084 cm^2 for the area of the monolayer; C0 is the initial concentration in the donor chamber (µM).
(§4) The efflux ratio (ER) was calculated using the equation: [drawing 2]
(§5) Percent recovery was calculated using the equation: [drawing 3] Where Vd is the volume in the donor chambers (0.075 mL on the apical side, 0.25 mL on the basolateral side); Cd and Cr are the final concentrations of transport compound in donor and receiver chambers, respectively. Cc is the compound concentration in the cell lysate solution (µM), and Vc is the volume of insert well (0.075 mL in this assay).
(§6) Permeability determinations were performed in triplicate and are reported as mean values.

Row | Compound | Papp B→A at 150 min, 2 µM [×10⁻⁶ cm/s] | Papp at 150 min, 2 µM [×10⁻⁶ cm/s]
1 | N#CCNC(=O)[C@H](Cc1c[nH]cn1)NC(=O)OCc1ccccc1 [Compound 9] | 2.9 | 0.5

test system: P-gp; assay: not given; conditions: Table S4, Doan et al. dataset; both assays positive or both negative; cited from earlier work

Row | Compound | P-gp interaction
2 | CNS(=O)(=O)Cc1ccc2[nH]cc(CCN(C)C)c2c1 [Sumatriptan] | N
3 | c1ccc2c(c1)Sc1ccccc1N2C[C@H]1CN2CCC1CC2 [(R)-Mequitazine] | Y
4 | (S)-Levomeprazine | Y
5 | NC12CC3CC(CC(C3)C1)C2 [Amantadine] | N
6 | COc1ccc2c(c1)N(C[C@H](C)CN(C)C)c1ccccc1S2 [(R)-Levomeprazine] | Y
7 | O=C(O)c1cc(/N=N/c2ccc(S(=O)(=O)Nc3ccccn3)cc2)ccc1O [Sulfasalazine_a*, Sulfasalazine] | N
8 | OC(CCN1CCCCC1)(c1ccccc1)C1CC2C=CC1C2 [(S)-Biperiden] | N
9 | C=CCOc1ccccc1OC[C@@H](O)CNC(C)C [(S)-Oxprenolol] | N
10 | OC(CCN1CCCCC1)(c1ccccc1)C1CC2C=CC1C2 [(R)-Biperiden] | N
11 | C=CCOc1ccccc1OC[C@H](O)CNC(C)C [(R)-Oxprenolol] | N
12 | O=C(O)c1cc(/N=N/c2ccc(S(=O)(=O)Nc3ccccn3)cc2)ccc1O [Sulfasalazine_b*, Sulfasalazine] | N
13 | COCCc1ccc(OC[C@H](O)CNC(C)C)cc1 [(R)-Metoprolol] | N
14 | C=CCN1CC[C@]23c4c5ccc(O)c4O[C@H]2C(=O)CC[C@@]3(O)[C@H]1C5 [Naloxone] | N
15 | CN(C)C/C=C(/c1ccc(Br)cc1)c1cccnc1 [Zimeldine] | N
16 | NC(=O)N1c2ccccc2C=Cc2ccccc21 [Carbamazepine] | N
17 | N=C(N)N/N=C/c1c(Cl)cccc1Cl [Guanabenz] | N
18 | OC[C@@H](O)[C@@H](O)[C@H](O)[C@H](O)CO [Mannitol] | N
19 | CC(C)(C)NC(=O)[C@@H]1C[C@@H]2CCCC[C@@H]2CN1C[C@@H](O)[C@H](Cc1ccccc1)NC(=O)[C@H](CC(N)=O)NC(=O)c1ccc2ccccc2n1 [Saquinavir] | Y
20 | COCCc1ccc(OC[C@@H](O)CNC(C)C)cc1 [(S)-Metoprolol] | N
21 | N=C(N)NC(=O)Cc1c(Cl)cccc1Cl [Guanfacine] | N
22 | c1ccc2c(c1)Sc1ccccc1N2CC1CN2CCC1CC2 [(S)-Mequitazine] | Y
23 | COc1ccc2c(c1)c(CC(=O)O)c(C)n2C(=O)c1ccc(Cl)cc1 [Indomethacin] | N
24 | CNC(C)(C)Cc1ccccc1 [Mephentermine] | N
25 | Clc1cccc(Cl)c1N=C1NCCN1 [Clonidine] | N
26 | CN(C)CCCN1c2ccccc2CCc2ccccc21 [Imipramine] | N
27 | Cc1c(O)cccc1C(=O)N[C@@H](CSc1ccccc1)[C@H](O)CN1C[C@H]2CCCC[C@H]2C[C@H]1C(=O)NC(C)(C)C [Nelfinavir] | Y
28 | CNCCCC1c2ccccc2C=Cc2ccccc21 [Protriptylene] | Y

same assay, conditions: Table S5, Doan et al. dataset; both assays positive or both negative; cited from earlier work

Row | Compound | P-gp interaction
29 | O=C(O)c1cc(/N=N/c2ccc(S(=O)(=O)Nc3ccccn3)cc2)ccc1O [Sulfasalazine] | N

same assay, conditions: not told; cited from earlier work

Row | Compound | P-gp interaction
30 | CN(C)CC[C@H](c1ccccc1)c1ccccn1 [(R)-Pheniramine] | N
31 | Nc1c2c(nc3ccccc13)CCCC2 [Tacrine] | N
32 | CN(C)CC[C@@H](c1ccccc1)c1ccccn1 [(S)-Pheniramine] | N
33 | CN(C)C(=O)C(CCN1CCC(O)(c2ccc(Cl)cc2)CC1)(c1ccccc1)c1ccccc1 [Loperamide] | Y
34 | CC(=O)C[C@H](c1ccccc1)c1c(O)c2ccccc2oc1=O [(R)-Warfarin] | N
35 | Cc1cc(=O)n(-c2ccccc2)n1C [Antipyrine] | N
36 | CN(C)CCO[C@](C)(c1ccccc1)c1ccccn1 [(R)-Doxylamine] | N
37 | CC(=O)C[C@@H](c1ccccc1)c1c(O)c2ccccc2oc1=O [(S)-Warfarin] | N
38 | CN(C)CCO[C@@](C)(c1ccccc1)c1ccccn1 [(S)-Doxylamine] | N
39 | O=C1CN=C(c2ccccc2)c2cc([N+](=O)[O-])ccc2N1 [Nitrazepam] | N
40 | CN[C@@]1(c2ccccc2Cl)CCCCC1=O [(R)-Ketamine] | N
41 | CCCC(C)(COC(N)=O)COC(N)=O [Meprobamate] | N
42 | CN[C@]1(c2ccccc2Cl)CCCCC1=O [(S)-Ketamine] | N
43 | COc1ccc(CCN2CCC(Nc3nc4ccccc4n3Cc3ccc(F)cc3)CC2)cc1 [Astemizole] | Y
44 | CN(C)CC[C@@H](c1ccc(Cl)cc1)c1ccccn1 [(S)-Chlorpheniramine] | N
45 | CC(C)(C)c1ccc([C@H](O)CCCN2CCC(C(O)(c3ccccc3)c3ccccc3)CC2)cc1 [(R)-terfenadine] | Y
46 | CN(C)CC[C@H](c1ccc(Cl)cc1)c1ccccn1 [(R)-Chlorpheniramine] | N
47 | CC(C)(C)c1ccc([C@@H](O)CCCN2CCC(C(O)(c3ccccc3)c3ccccc3)CC2)cc1 [(S)-terfenadine] | Y

test system: MDCK-MDR1 cells; assay: MDCK-MDR1 monolayer permeability assay; conditions: 2 µM, 150 min
Method: as §1, §2, §3, §4, §5, §6

Row | Compound | Mean Efflux Ratio
48 | N#CCNC(=O)[C@H](Cc1c[nH]cn1)NC(=O)OCc1ccccc1 [Compound 9] | 5.8

same assay, conditions: 2 µM, 150 min, 37°C, pH 7.4, triplicate mean

Row | Compound | Mean Papp A to B
49 | N#CCNC(=O)[C@H](Cc1c[nH]cn1)NC(=O)OCc1ccccc1 [Compound 9] | 0.51 10^−6 cm/s

test system: P-gp; assay: not given; conditions: metabolites with favorable scores reassigned to the binders set; cited from earlier work

Row | Compound | Reported interaction with P-gp
50 | CC(C)CCC[C@@H](C)[C@H]1CC[C@H]2[C@@H]3CC=C4C[C@@H](O)CC[C@]4(C)[C@H]3CC[C@]12C [Cholesterol**, Cholesterol] | interact with P-gp
51 | CC(=O)[C@H]1CC[C@H]2[C@@H]3CCC4=CC(=O)CC[C@]4(C)[C@H]3CC[C@]12C [Progesterone**, Progesterone] | interact with P-gp
52 | C=C1CC[C@H](O)C/C1=C/C=C1\CCC[C@]2(C)[C@@H]([C@H](C)CCCC(C)C)CC[C@@H]12 [Vitamin D3**, Vitamin D3] | interact with P-gp
53 | NC(Cc1cc(I)c(Oc2cc(I)c(O)c(I)c2)c(I)c1)C(=O)O (stereo not shown) [Thyroxine**, Thyroxine] | interact with P-gp

test system: P-gp; assay: not given; parameters: method as in Aller paper [29]; conditions: reported value; ref Aller paper [29]; read-out: IC50 for inhibition of verapamil-stimulated ATPase activity; cited from earlier work

Row | Compound | IC50 [µM]
54 | QZ59-RRR | 4.8 ± 2.6

— article PMC3121697, “Predicting Binding to P-Glycoprotein by Flexible Receptor Docking” (PLoS Computational Biology, 2011)
